The test system of experiment [1] is Trypanosoma brucei Lister 427 strain, bloodstream form. In words: Assay for proliferation of kinetoplastid parasite Trypanosoma brucei (Cell Titer Glo, 48 hours). The format is cell-based. Conditions: Trypanosoma brucei, T. brucei Lister 427 bloodstream form, read-out: T. brucei EC50. In short, it runs like this:
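Bloodstream-form T. brucei Lister 427 in HMI-9 medium was exposed to compound (DMSO vehicle) for 48 hours at 37° C, 5% CO2. Parasite growth was read as ATP by CellTiter-Glo luminescence, with EC50 calculated from percent inhibition.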
In general terms: In ATP-based viability assays light output follows the ATP content of the culture.

In experiment [2] the test system is Trypanosoma cruzi amastigotes (Tulahuen strain expressing Lac-Z) cultured in 3T3 fibroblast cells. In words: microbe, parasite or virus in culture. The format is cell-based. Conditions: Trypanosoma cruzi, TULAHUEN, Fibroblast, T. cruzi amastigotes in 3T3 fibroblast cells, read-out: T cruzi EC50.
For experiment [3], the system named is Leishmania donovani axenic amastigote parasites. In words: Leishmania donovani axenic amastigote proliferation assay (Cell TiterGlo luminescence, 2 day incubation). The format is cell-based. Conditions: Leishmania donovani, read-out: L. donovani amastigotes EC50.
Experiment [4] concerns L. donovani HU3 strain in mouse peritoneal macrophages. Put plainly: Assay for proliferation of Leishmania parasites in infected mouse peritoneal macrophages (SybrGreen staining, high-content imaging, 5 days). The format is cell-based, Leishmania donovani. As to conditions: Leishmania donovani, Peritoneal macrophage, L. donovani in mouse peritoneal macrophages, read-out: L. donovani Macrophage EC50.

[5] abbreviates: axenic amastigotes, inhibition of proliferation.

Read-outs that look alike come from different tables or passages of the source. A value given as a limit tells only on which side of the number the result lay.

The term EC50 denotes the concentration that produces a half-maximal response. On to `CN(C)C(=O)Nc1ccc(F)c(-c2cn3cc(C4=CCOCC4)cnc3n2)c1` [Compound 324], for which the concentration giving a half-maximal response (EC50) came to 47 nM in experiment [1] (inhibition of proliferation), 253 nM in experiment [2] (inhibition of proliferation), 288 nM in experiment [3] (setting [5]) and 1570 nM in experiment [4] (inhibition of proliferation).
For the compound `Cc1nc(C)c(C(=O)Nc2ccc(F)c(-c3cn4cc(Cl)cnc4n3)c2)o1` [Compound 205], the half-maximal effective concentration (EC50) was 352 nM in experiment [1] (inhibition of proliferation), 413 nM in experiment [2] (inhibition of proliferation), 300 nM in experiment [3] (setting [5]) and 1240 nM in experiment [4] (inhibition of proliferation).
The matching figures for `CC(C)OC(=O)Nc1cnc2nc(-c3cc(NC(=O)c4ccc(Cl)s4)ccc3F)cn2c1` [Compound 66]: 1840 nM, 444 nM, 2810 nM and 16100 nM.
The corresponding values for `Cc1ncc(C(=O)Nc2ccc(F)c(-c3cn4cc(-c5ccccn5)cnc4n3)c2)o1` [Compound 198] are 18 nM, 16 nM, 7 nM and 16 nM.
The matching figures for `CNc1cnc2nc(-c3cc(NC(=O)c4oc(C)nc4C)ccc3F)cn2c1` [Compound 212]: 1010 nM, 1300 nM, 1120 nM and 4150 nM.
Take `Cc1ccccc1-c1cnc2nc(-c3cc(NC(=O)N4CCCC4)ccc3F)cn2c1` [Compound 356]: the EC50 was found to be 18 nM in experiment [1] (inhibition of proliferation), 16 nM in experiment [2] (inhibition of proliferation), 88 nM in experiment [3] (setting [5]) and 332 nM in experiment [4] (inhibition of proliferation).
Take `Cc1nc(C)c(C(=O)Nc2ccc(F)c(-c3cn4cc(-c5ccncc5)cnc4n3)c2)o1` [Compound 377]: the concentration giving a half-maximal response (EC50) was determined as 42 nM in experiment [1], 137 nM in experiment [2], 75 nM in experiment [3] (L. donovani axenic amastigotes) and 144 nM in experiment [4].
The matching figures for `Cc1nc(C)c(C(=O)Nc2ccc(F)c(-c3cn4cc(NC(=O)OCCCCl)cnc4n3)c2)o1` [Compound 519]: 366 nM, 3260 nM, 244 nM and 1620 nM.
For `O=C(Nc1ccc(F)c(-c2cn3cc(C4=CCOCC4)cnc3n2)c1)N1CCC1` [Compound 322], the EC50 in experiment [1] (inhibition of proliferation) stood at 20 nM; in experiment [2] (inhibition of proliferation), 76 nM; in experiment [3] (setting [5]), 43 nM; in experiment [4] (inhibition of proliferation), 157 nM.
The corresponding values for `Cc1ncoc1C(=O)Nc1cccc(-c2cn3cc(NC(=O)OC(C)C)cnc3n2)c1` [Compound 204] are 676 nM, 4100 nM, 941 nM and 19200 nM.
The corresponding values for `CC(C)OC(=O)Nc1cnc2nc(-c3cc(NC(=O)c4ccco4)ccc3Cl)cn2c1` [Compound 244] are 65 nM, 55 nM, 152 nM and 345 nM.
The corresponding values for `Cc1nc(C)c(C(=O)Nc2ccc(F)c(-c3cn4cc(NC(=O)[C@@H]5[C@@H]6CCC(O6)[C@@H]5N)cnc4n3)c2)o1` [Compound 157] are 31300 nM, more than 20000 nM, more than 25000 nM and more than 50000 nM.
Turning to `O=C(Nc1cnc2nc(-c3cc(NC(=O)N4CCCC4)ccc3F)cn2c1)C1CC1` [Compound 134], the EC50 in experiment [1] (inhibition of proliferation) came out at 73 nM; in experiment [2] (inhibition of proliferation), 5200 nM; in experiment [3] (setting [5]) it was 267 nM; in experiment [4] (inhibition of proliferation) it was 8360 nM.
`Cc1nc(C)c(C(=O)Nc2ccc(F)c(-c3cn4cc(NC(=O)c5nc(N)cn5C)cnc4n3)c2)o1` [Compound 178]: the EC50 in experiment [1] (inhibition of proliferation) is 2970 nM; in experiment [2] (inhibition of proliferation) it was more than 20000 nM; in experiment [3] (setting [5]), 6710 nM; in experiment [4] (inhibition of proliferation), more than 42500 nM.
As to `Cc1nc(C)c(C(=O)Nc2ccc(F)c(-c3cn4cc(-c5cccc(C(N)=O)n5)cnc4n3)c2)o1` [Compound 433], the 50% effective concentration (EC50) in experiment [1] is 494 nM; in experiment [2], more than 20000 nM; in experiment [3] (L. donovani axenic amastigotes), 1810 nM; in experiment [4], more than 50000 nM.
The corresponding values for `Cc1nc(C)c(C(=O)Nc2ccc(F)c(-c3cn4cc(NC5=NCC(C)(C)N5)cnc4n3)c2)o1` [Compound 509] are 10400 nM, more than 20000 nM, more than 25000 nM and more than 50000 nM.
The corresponding values for `Cc1nc(C)c(C(=O)Nc2ccc(F)c(-c3cn4cc(-c5ncc(F)cc5F)cnc4n3)c2)o1` [Compound 447] are 103 nM, 20 nM, 36 nM and 1380 nM.
On to `Cc1nc(C)c(C(=O)Nc2ccc(F)c(-c3cn4cc(NC5=NC(C)CO5)cnc4n3)c2)o1` (stereo not shown) [Compound 524], for which the EC50 in experiment [1] turned out to be 1000 nM; in experiment [2] it was 12600 nM; in experiment [3] (L. donovani axenic amastigotes), 3510 nM; in experiment [4] it was 9540 nM.
`O=C(Nc1ccc(F)c(-c2cn3cc(F)cnc3n2)c1)N1CCC1` [Compound 232]: the 50% effective concentration (EC50) was 203 nM in experiment [1] (inhibition of proliferation), 384 nM in experiment [2] (inhibition of proliferation), 381 nM in experiment [3] (setting [5]) and 1650 nM in experiment [4] (inhibition of proliferation).
The matching figures for `Cc1cc(C(=O)Nc2ccc(F)c(-c3cn4cc(NC(=O)OC(C)C)cnc4n3)c2)no1` [Compound 86]: 924 nM, more than 20000 nM, more than 25000 nM and more than 50000 nM.
Turning to `CC(C)OC(=O)Nc1cnc2nc(-c3cc(NC(=O)c4ccnn4C)ccc3F)cn2c1` [Compound 74], the EC50 in experiment [1] (inhibition of proliferation) came to 490 nM; in experiment [2] (inhibition of proliferation) it was 608 nM; in experiment [3] (setting [5]), 608 nM; in experiment [4] (inhibition of proliferation) it was 3890 nM.
On to `O=C(Nc1cnc2nc(-c3cc(NC(=O)N4CCCC4)ccc3F)cn2c1)c1ccccn1` [Compound 147], for which the EC50 turned out to be 19 nM in experiment [1] (inhibition of proliferation), 65 nM in experiment [2] (inhibition of proliferation), 74 nM in experiment [3] (setting [5]) and 67 nM in experiment [4] (inhibition of proliferation).
Turning to `O=C(Nc1ccc(F)c(-c2cn3cc(F)cnc3n2)c1)N1CC(F)(F)C1` [Compound 233], the EC50 in experiment [1] (inhibition of proliferation) is 326 nM; in experiment [2] (inhibition of proliferation), 754 nM; in experiment [3] (setting [5]), 290 nM; in experiment [4] (inhibition of proliferation) it was 2050 nM.
The corresponding values for `COCC(=O)Nc1cnc2nc(-c3cc(NC(=O)N4CCCC4)ccc3F)cn2c1` [Compound 139] are 128 nM, 3740 nM, 450 nM and 6820 nM.
As to `COC(=O)c1cnc2nc(-c3cc(NC(=O)c4oc(C)nc4C)ccc3F)cn2c1` [Compound 548, methyl 2-(5-(2,4-dimethyloxazole-5-carboxamido)-2-fluorophenyl)imidazo[1,2-a]pyrimidine-6-carboxylate], the EC50 turned out to be 518 nM in experiment [1], 539 nM in experiment [2], 651 nM in experiment [3] (L. donovani axenic amastigotes) and 1070 nM in experiment [4].
The matching figures for `Cc1nc(C)c(C(=O)Nc2ccc(F)c(-c3cn4cc(-c5ccc[nH]5)cnc4n3)c2)o1` [Compound 573]: 107 nM, 462 nM, 155 nM and 168 nM.
In the case of `CC(C)OC(=O)Nc1cnc2nc(-c3cc(NC(=O)c4cnco4)ccc3F)cn2c1` [Compound 78], the EC50 in experiment [1] (inhibition of proliferation) came to 553 nM; in experiment [2] (inhibition of proliferation), 1910 nM; in experiment [3] (setting [5]), 307 nM; in experiment [4] (inhibition of proliferation), 6410 nM.
For `O=C(Nc1ccc(F)c(-c2cn3cc(Cl)cnc3n2)c1)N1CC[C@@H](F)C1` [Compound 236], the concentration for a half-maximal effect (EC50) is 36 nM in experiment [1] (inhibition of proliferation), 98 nM in experiment [2] (inhibition of proliferation), 95 nM in experiment [3] (setting [5]) and 434 nM in experiment [4] (inhibition of proliferation).
For the compound `Cc1nc(C)c(C(=O)Nc2ccc(F)c(-c3cn4cc(OCC5CC5)cnc4n3)c2)o1` [Compound 610], the EC50 in experiment [1] turned out to be 150 nM; in experiment [2], 109 nM; in experiment [3] (L. donovani axenic amastigotes), 121 nM; in experiment [4] it was 269 nM.
With `CC(C)OC(=O)N(C)c1cnc2nc(-c3cc(NC(=O)c4ccc(Cl)o4)ccc3F)cn2c1` [Compound 550, isopropyl (2-(5-(5-chlorofuran-2-carboxamido)-2-fluorophenyl)imidazo[1,2-a]pyrimidin-6-yl)(methyl)carbamate], the concentration giving a half-maximal response (EC50) in experiment [1] stood at 78 nM; in experiment [2], 42 nM; in experiment [3] (L. donovani axenic amastigotes), 176 nM; in experiment [4] it was 516 nM.
With `Cc1nc(C)c(C(=O)Nc2ccc(F)c(-c3cn4cc(NC(=O)CC5CCCCO5)cnc4n3)c2)o1` (stereo not shown) [Compound 155], the half-maximal effective concentration (EC50) in experiment [1] (inhibition of proliferation) is 796 nM; in experiment [2] (inhibition of proliferation) it was 2410 nM; in experiment [3] (setting [5]), 1550 nM; in experiment [4] (inhibition of proliferation), 3720 nM.
The corresponding values for `CC(C)OC(=O)Nc1cnc2nc(-c3cc(NC(=O)N(C(C)C)C(C)C)ccc3F)cn2c1` [Compound 228] are 34500 nM, 9990 nM, more than 25000 nM and 19500 nM.
The corresponding values for `O=C(Nc1cccc(-c2cn3cc(-c4ccccc4)cnc3n2)c1)N1CC[C@@H](F)C1` [Compound 337] are 24 nM, 68 nM, 72 nM and 195 nM.
The corresponding values for `C=C(C)OC(=O)Nc1cnc2nc(-c3cc(NC(=O)c4oc(C)nc4C)ccc3F)cn2c1` [Compound 311] are 1670 nM, 5580 nM, 162 nM and 12000 nM.

Values taken from patent US20160045505A1, “COMPOUNDS AND COMPOSITIONS FOR THE TREATMENT OF PARASITIC DISEASES” (NOVARTIS AG, priority 2013, published 2016).
